Earlier results on three compounds are cited in patent US20030083520A1, “Process for preparing bicyclic amino acid” (Pfizer Inc., priority 2001, published 2003).

The data set relates to α2δ subunit derived from porcine brain tissue. The note with it: [3H]gabapentin radioligand.
Consider `NCC1(CC(=O)O)C[C@H]2CC[C@@H]2C1` (racemic) [(+/−)-(1α,5β)(3-Aminomethyl-bicyclo[3.2.0]hept-3-yl)-acetic acid], for which the α2δ binding affinity was 2.86 µM. Take `NC[C@]1(CC(=O)O)C[C@H]2CC[C@H]2C1` [(1α,3α,5α)(3-aminomethyl-bicyclo[3.2.0]hept-3-yl)-acetic acid]: the α2δ binding affinity is 0.038 µM.

Take `NC[C@@]1(CC(=O)O)C[C@H]2CC[C@H]2C1` [(1α,3β,5α)(3-Aminomethyl-bicyclo[3.2.0]hept-3-yl)-acetic acid]: the α2δ binding affinity is 0.332 µM.
